The values that follow are results of earlier work, collected in patent US20190015339A1, “PHARMACEUTICAL COMBINATION FORMULATION” (SHIN POONG PHARMACEUTICAL CO., LTD., priority 2015, published 2019).

Like-named read-outs stand apart in the source and are kept apart here.

For the molecule `CCOc1nc2cccc(C(=O)OC(C)OC(=O)OC3CCCCC3)c2n1Cc1ccc(-c2ccccc2-c2nnn[nH]2)cc1` (centres unmarked) [candesartan cilexetil], the absolute bioavailability entry reads like this: (used as a solution) “about 40%”; (used as a tablet formulation) “about 15%”.
